One data set addresses T1, GIPR (Homo sapiens, UniProt P48546).
T1 construct: expressed in transfected cells
T1 sequence (P48546 22-466): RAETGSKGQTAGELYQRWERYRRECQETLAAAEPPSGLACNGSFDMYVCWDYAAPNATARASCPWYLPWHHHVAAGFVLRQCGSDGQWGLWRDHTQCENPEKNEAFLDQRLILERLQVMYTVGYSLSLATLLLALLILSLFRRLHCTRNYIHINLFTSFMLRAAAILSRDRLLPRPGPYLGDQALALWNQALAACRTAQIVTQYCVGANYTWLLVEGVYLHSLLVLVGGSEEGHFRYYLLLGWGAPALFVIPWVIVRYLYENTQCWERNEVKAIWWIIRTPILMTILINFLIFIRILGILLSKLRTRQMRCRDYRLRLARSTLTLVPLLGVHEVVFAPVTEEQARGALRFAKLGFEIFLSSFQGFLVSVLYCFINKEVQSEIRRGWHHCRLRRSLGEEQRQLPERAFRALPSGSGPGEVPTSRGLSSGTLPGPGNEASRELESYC
Briefly: cAMP method (HTRF cAMP detection kit), HEK293/pGM-CREB-L-Luc/GIP pool. It is filed as cell-based. As to conditions: read-out: EC50 (pM) for each receptor GIPR. In general terms: Time-resolved FRET reads energy transfer from a long-lived donor to a nearby acceptor.

Another data set addresses T2, GCGR (Homo sapiens, UniProt P47871).
T2 construct: expressed in transfected cells
Briefly: cAMP method (HTRF cAMP detection kit), HEK293/pGM-CREB-L-Luc/GCG pool. Format: cell-based. As to conditions: read-out: EC50 (pM) for each receptor GCGR.

The next data set can be described thus: in vivo. More on the design: species or system male SD rats. As to conditions: rat. The protocol: The pharmacokinetic behavior of target peptide derivatives (or polypeptide derivatives) prepared in Example 1 and Example 2, i.e., TG1-TG94 in rodents was tested. The specific steps are as follows:
The target peptide derivatives (TG1-TG94) to be tested were administered to male SD rats via subcutaneous injection (SC, 3 mg/kg; drug vehicle: PBS, concentration: 1.5 mg/mL; administration volume: 2 mL) and intravenous injection (IV, 1 mg/kg; drug vehicle: PBS, concentration: 0.5 mg/mL; administration volume: 2 mL) as a single dose, respectively. Whole blood samples were collected from the jugular vein or other appropriate vein at the following time points after administration: for SC, 15 min, 30 min, 1 h, 2 h, 4 h, 6 h, 8 h, 24 h, 48 h, 72 h, 96 h, 120 h, and 168 h; for IV, 5 min, 15 min, 30 min, 1 h, 2 h, 4 h, 8 h, 24 h, 48 h, 72 h, 96 h, 120 h, and 168 h. 0.2 mL of blood was collected and transferred into a labeled EDTA-K2 anticoagulant tube. The tube was gently inverted to ensure thorough mixing of the anticoagulant (EDTA-K2) with the blood and immediately placed on wet ice. Plasma separation was performed as soon as possible by centrifugation under the following conditions: 4°C, 6800xg, for 6 min. The plasma samples were stored in a refrigerator at no higher than -20°C and used for analysis when needed.
Under the condition of yellow light in an ice-water bath, except for blank samples, 300 µL of precipitant containing an internal standard was added to a 96-well plate containing 20 µL of standard curve sample, quality control sample, or unknown sample; 300 µL of acetonitrile was added to the blank sample. The mixture was vortexed, mixed well, and then centrifuged. 150 µL of the supernatant after centrifugation was transferred to a new 96-well plate, and 150 µL of ultrapure water was added and mixed well. The above samples were subjected to quantitative analysis using LC-MS analysis with XB-C18 (2.1 * 100 mm, 3 µm) chromatography for gradient elution. The mobile phases used were: mobile phase A = 0.1% formic acid-water; mobile phase B = acetonitrile. Phoenix WinNonlin software was used to calculate the pharmacokinetic parameters. […] Table 5A: Pharmacokinetic parameters of target peptide derivatives

The target of a further data set is T3, GLP-1R (Homo sapiens, UniProt P43220).
T3 construct: expressed in transfected cells
T3 sequence (P43220 24-463, species assumed): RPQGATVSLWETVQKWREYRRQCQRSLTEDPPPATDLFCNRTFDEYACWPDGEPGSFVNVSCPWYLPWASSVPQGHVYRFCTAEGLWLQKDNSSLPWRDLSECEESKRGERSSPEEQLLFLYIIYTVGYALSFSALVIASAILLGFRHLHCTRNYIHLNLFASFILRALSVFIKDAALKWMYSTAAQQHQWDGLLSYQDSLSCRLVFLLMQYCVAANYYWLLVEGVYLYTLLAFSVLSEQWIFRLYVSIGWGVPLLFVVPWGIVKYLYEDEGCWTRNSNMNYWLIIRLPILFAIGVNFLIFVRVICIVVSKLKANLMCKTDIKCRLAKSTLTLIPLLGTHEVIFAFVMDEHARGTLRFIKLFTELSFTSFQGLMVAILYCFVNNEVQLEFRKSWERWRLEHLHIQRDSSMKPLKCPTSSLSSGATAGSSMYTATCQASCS
As to the kind of experiment: CreLuc method (CRE-luciferase reporter), HEK293/pGM-CREB-L-Luc/GLP-1R pool. It is filed as cell-based. The following applies: 6 h incubation, read-out: EC50 (pM) for each receptor GLP-1R. The procedure, abridged:
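Stable HEK293 pools co-expressing each receptor with a CRE-luciferase reporter were plated at 20,000 cells/well in freestyle medium and treated with compound dilution series for 6 h at 37 °C. Luminescence was read with ONE-GLO to derive EC50.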
(In a reporter assay the amount or activity of a reporter protein is the signal.)

*1 amine or outer side, *2 acyl side, *3 side chain or, on linkers, in order; H or OH if unused. Where a SMILES comes first, the peptide text is derived from it. Bridges are numbered along the chain shown (N, C = ends). [ ]: non-standard residue; d: D form. X1 = O=C(O)CCCCCCCCCCCCCCCCCCC(=O)N[C@@H](CCCCNC(=O)COCCOCCNC(=O)COCCOCCNC(=O)CCC(=O)N(CCNC(=O)C[*:1])CCNC(=O)C[*:2])C(=O)O; Phe(2-F) = N[C@@H](Cc1ccccc1F)C(=O)O; Iva = CC[C@](C)(N)C(=O)O; Aib = CC(C)(N)C(=O)O

T2 sequence (P47871 26-477, species assumed): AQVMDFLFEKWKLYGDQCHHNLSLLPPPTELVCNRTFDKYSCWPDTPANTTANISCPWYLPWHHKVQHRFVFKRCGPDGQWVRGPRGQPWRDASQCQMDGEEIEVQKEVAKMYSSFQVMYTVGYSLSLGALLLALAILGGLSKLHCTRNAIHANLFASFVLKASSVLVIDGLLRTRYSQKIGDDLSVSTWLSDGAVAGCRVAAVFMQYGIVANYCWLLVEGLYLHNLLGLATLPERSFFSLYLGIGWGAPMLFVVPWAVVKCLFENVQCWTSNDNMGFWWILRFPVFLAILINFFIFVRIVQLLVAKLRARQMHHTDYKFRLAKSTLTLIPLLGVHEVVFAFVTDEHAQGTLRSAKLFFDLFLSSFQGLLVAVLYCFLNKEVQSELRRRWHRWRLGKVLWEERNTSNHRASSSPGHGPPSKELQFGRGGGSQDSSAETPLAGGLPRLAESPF

As to `CC[C@H](C)[C@@H]1NC(=O)[C@H](Cc2ccccc2)NC(=O)[C@@H](NC(=O)C(C)(C)NC(=O)[C@H](CCC(N)=O)NC(=O)[C@H](C)NC(=O)[C@H](CCCCNC(C)=O)NC(=O)[C@H](CCCCN)NC(=O)[C@H](CC(=O)O)NC(=O)[C@H](CC(C)C)NC(=O)[C@](C)(CC)NC(=O)[C@@H](NC(=O)[C@H](CO)NC(=O)[C@H](Cc2ccc(O)cc2)NC(=O)[C@H](CC(=O)O)NC(=O)[C@H](CO)NC(=O)[C@@H](NC(=O)[C@H](Cc2ccccc2F)NC(=O)[C@@H](NC(=O)CNC(=O)[C@H](CCC(N)=O)NC(=O)C(C)(C)NC(=O)[C@@H](N)Cc2ccc(O)cc2)[C@@H](C)O)[C@@H](C)O)[C@@H](C)CC)CSCC(=O)NCCN(C(=O)CCC(=O)NCCOCCOCC(=O)NCCOCCOCC(=O)NCCCC[C@H](NC(=O)CCCCCCCCCCCCCCCCCCC(=O)O)C(=O)O)CCNC(=O)CSC[C@@H](C(=O)NCC(=O)NCC(=O)N2CCC[C@H]2C(=O)N[C@@H](CO)C(=O)N[C@@H](CO)C(=O)NCC(=O)N[C@@H](C)C(=O)N2CCC[C@H]2C(=O)N2CCC[C@H]2C(=O)N2CCC[C@H]2C(=O)N[C@@H](CO)C(N)=O)NC(=O)[C@H](CC(C)C)NC(=O)[C@H](CC(C)C)NC(=O)[C@H](Cc2ccc(O)cc2)NC(=O)[C@H](CCC(=O)O)NC1=O` [TG52] (H-Y[Aib]QGT[Phe(2-F)]TSDYSI[Iva]LDKK(Ac)AQ[Aib]CFIEYLLCGGPSSGAPPPS-NH2; linker 21-28 via X1), on GIPR, the concentration giving a half-maximal response (EC50) (as a rule, the concentration that produces a half-maximal response) was determined as 3.8 pM. For the same molecule, on GCGR, the EC50 was 8.8 pM. For the same molecule, in the data set “in vivo” (male, SD, iv, 1 mg/kg), the area under the curve AUC(0-inf) (as a rule, the area under the concentration-time curve extrapolated to infinity) worked out at 289 µg·h/mL; the AUC(0-t) (as a rule, exposure summed from dosing to a finite time, without extrapolation to infinity) was 265 µg·h/mL; the MRT (usually a mean duration of stay, worked out from the concentration-time curve) is 26.5 h; the Vd (as a rule, the apparent volume that relates the amount in the body to the concentration in plasma or blood) is 0.092 L/kg. In addition, in the data set “in vivo” (male, SD, iv, 1 mg/kg), the clearance (usually the volume of plasma or blood freed of the substance per unit of time) came out at 3.48 mL/h/kg and the half-life – broadly, how long it takes for the measured level to halve – is 21.5 h. Moreover, in “in vivo” (male, SD, sc), the bioavailability (usually the share of a dose that reaches the circulation, judged against a reference dose that is usually intravenous) came out at 50.9%. In addition, in “in vivo” (male, SD, sc, 3 mg/kg), the AUC(0-inf) was found to be 570 µg·h/mL; the AUC(0-t) turned out to be 410 µg·h/mL; the apparent clearance (CL/F) (usually clearance divided by bioavailability, as obtained after extravascular dosing) is 5.26 mL/h/kg; the Cmax (as a rule, the peak of the concentration-time curve) was 8210 ng/mL. In “in vivo” (male, SD, sc, 3 mg/kg), the MRT was determined as 42.8 h; the Tmax – broadly, the time at which the peak concentration occurs – is 24 h; the half-life is 26.4 h. Besides, in the data set “in vivo” (iv, 1 mg/kg), the “AUC0-t /AUC0-inf” value came to 0.918 and the Kel stood at 0.0323 h⁻¹. In “in vivo” (sc, 3 mg/kg), the “AUC0-t /AUC0-inf” value was found to be 0.834 and the Vz/F amounted to 0.200 L/kg. In addition, on GLP-1R, the EC50 amounted to 112 pM.

Source of the values: patent EP4790066A1, “GLP-1R/GIPR/GCGR TRIPLE AGONIST ANALOGUE AND USE THEREOF” (Shenzhen Bay Laboratory, priority 2023, dated 2025).
